Earlier results, collected in US7923440B2, “Method of treating or preventing immune mediated disorders and pharmaceutical formulation for use therein” (Pantarhei Bioscience B.V., priority 2002, dated 2011).

Biological target: T1, rat uterine nuclear estrogen receptor (Rattus norvegicus, UniProt P06211)
T1 construct: rat uterine nuclear estrogen receptor; host or cells: rat uterus, nuclear fraction
T1 sequence (P06211 1-600): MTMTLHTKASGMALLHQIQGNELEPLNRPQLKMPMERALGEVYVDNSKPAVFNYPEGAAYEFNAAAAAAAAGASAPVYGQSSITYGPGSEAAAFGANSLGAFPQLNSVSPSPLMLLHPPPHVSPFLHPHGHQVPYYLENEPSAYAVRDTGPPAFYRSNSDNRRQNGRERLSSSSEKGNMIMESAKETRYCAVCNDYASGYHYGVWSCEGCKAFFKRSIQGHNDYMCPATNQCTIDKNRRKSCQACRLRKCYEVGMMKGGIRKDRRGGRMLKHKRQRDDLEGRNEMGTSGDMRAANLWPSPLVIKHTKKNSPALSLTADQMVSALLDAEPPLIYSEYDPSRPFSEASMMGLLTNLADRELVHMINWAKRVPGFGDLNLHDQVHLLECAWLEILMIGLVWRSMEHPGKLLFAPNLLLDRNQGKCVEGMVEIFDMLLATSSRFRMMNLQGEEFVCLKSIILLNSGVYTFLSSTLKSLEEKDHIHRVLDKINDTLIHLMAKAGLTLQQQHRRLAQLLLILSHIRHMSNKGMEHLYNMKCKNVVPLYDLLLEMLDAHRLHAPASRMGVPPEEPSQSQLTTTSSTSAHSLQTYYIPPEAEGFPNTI
Settings: Martucci et al. 1976; cited from earlier work

## C[C@]12CC[C@@H]3c4ccc(O)cc4CC[C@H]3[C@@H]1[C@@H](O)[C@@H](O)[C@@H]2O [E4, 1,3,5 (10)-estratrien-3,15α,16α,17β-tetrol]
  relative binding affinity, of 17β-estradiol (100%): 0.3%
